The source of these data is BindingDB's records for doi:10.1021/jm990229t (Ariad Pharmaceuticals, 1999).

In general, IC50 refers to the concentration that gives 50% inhibition. High values mean weaker potency in that assay, low ones greater potency in that assay.

The target of assay [1] is T1, Tyrosine-protein kinase ZAP-70 (Homo sapiens, UniProt P43403).
T1 sequence (P43403 whole entry): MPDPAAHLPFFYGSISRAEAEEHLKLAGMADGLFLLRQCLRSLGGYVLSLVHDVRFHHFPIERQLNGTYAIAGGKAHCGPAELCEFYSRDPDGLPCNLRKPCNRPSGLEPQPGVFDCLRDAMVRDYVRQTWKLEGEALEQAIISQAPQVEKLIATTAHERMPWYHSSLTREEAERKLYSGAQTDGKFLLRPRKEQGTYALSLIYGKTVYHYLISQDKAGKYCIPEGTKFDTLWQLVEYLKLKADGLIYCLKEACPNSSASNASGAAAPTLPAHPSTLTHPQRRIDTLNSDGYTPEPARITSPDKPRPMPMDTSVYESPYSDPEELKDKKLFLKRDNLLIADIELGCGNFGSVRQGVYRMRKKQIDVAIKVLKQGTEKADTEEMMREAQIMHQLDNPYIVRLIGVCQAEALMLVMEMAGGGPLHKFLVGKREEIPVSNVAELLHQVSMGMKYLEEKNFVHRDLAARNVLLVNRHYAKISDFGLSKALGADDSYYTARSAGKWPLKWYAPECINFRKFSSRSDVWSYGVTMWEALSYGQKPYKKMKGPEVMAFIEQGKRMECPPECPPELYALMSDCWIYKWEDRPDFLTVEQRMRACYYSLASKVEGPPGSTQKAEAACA
The assay can be described thus: Competitive Binding Assay. The settings on record: pH 7.4; 22 °C. The protocol: (§1) Fluorescence polarization competitive binding assays were used to measure the IC50s of compounds binding to the different SH2 domains. The difference in polarization values of fluorescein-conjugated peptide reflects the bound and unbound state of the probe. IC50s were calculated based on the binding of the fluorescein-conjugated peptide to the protein with compound addition relative to vehicle-alone control samples.

Assay [2] deals with Proto-oncogene tyrosine-protein kinase Src (Homo sapiens, UniProt P12931). The assay can be described thus: Competitive Binding Assay. The conditions noted are these: pH 7.4; 22 °C. The protocol: as §1
Proto-oncogene tyrosine-protein kinase Src, sequence (P12931 2-536 limits assumed): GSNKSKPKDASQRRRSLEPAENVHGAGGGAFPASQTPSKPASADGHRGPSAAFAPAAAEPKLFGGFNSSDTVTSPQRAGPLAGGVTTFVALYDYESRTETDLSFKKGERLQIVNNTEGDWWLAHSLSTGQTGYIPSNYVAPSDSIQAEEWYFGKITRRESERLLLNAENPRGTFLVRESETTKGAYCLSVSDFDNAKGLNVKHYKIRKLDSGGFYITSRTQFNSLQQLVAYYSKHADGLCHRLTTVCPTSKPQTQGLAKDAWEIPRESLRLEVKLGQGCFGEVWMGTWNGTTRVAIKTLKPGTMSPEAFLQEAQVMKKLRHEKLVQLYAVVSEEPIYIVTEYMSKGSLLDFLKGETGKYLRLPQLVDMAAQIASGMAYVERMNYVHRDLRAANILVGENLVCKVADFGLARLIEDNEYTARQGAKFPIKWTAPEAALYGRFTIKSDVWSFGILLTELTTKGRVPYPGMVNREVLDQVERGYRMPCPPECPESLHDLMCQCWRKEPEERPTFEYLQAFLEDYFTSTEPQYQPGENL

Regarding `CC(=O)N[C@@H](Cc1ccc(OP(=O)(O)O)cc1)C(=O)N[C@@H](CCC(N)=O)c1nc(Cc2c(C)cc(C)cc2C)no1` [4-[(2S)-2-{[(1S)-3-carbamoyl-1-{3-[(2,4,6-trimethylphenyl)methyl]-1,2,4-oxadiazol-5-yl}propyl]carbamoyl}-2-acetamidoethyl]phenoxyphosphonic acid], the figures for the IC50 in assay [1] and in assay [2] were greater than 500 µM and 312 µM, respectively.
